Measured values as given in US20070037882A1, “Remedy for cerebral neurodegenerative diseases using ppar agonist” (Astellas Pharma Inc., priority 2003, published 2007).

Columns and labels:
[1] = system: rat cerebral infarction model; assay: Rat cerebral infarction model (middle cerebral artery-occluded reperfusion, Koizumi method); type: in vivo; details: for Lesions with cerebral infarction (area in % of damaged site in the 6 sections), Cortex / Lesions with cerebral infarction (area in % of damaged site in the 6 sections), Subcortex / Lesions with cerebral infarction (area in % of damaged site in the 6 sections), Total: 24 h after reperfusion
SH-SY5Y cells [2] = assay: Staurosporine-induced cellular death model, apoptosis by caspase-3/7 assay; type: cell-based, human; details: for Caspase 3/7 activity: staurosporine + (150 nM), 3 h
Procedure: (§1) SH-SY5Y cells were spread on a 96-well plate (70,000 cell/well in 100 μl DMEM low glucose 10% fetal bovine serum) for overnight culturing, from which the culture medium was removed with an aspirator. Then, DMEM without serum was added at 50 μl/well. […] 2 hours later, DMEM without serum containing 900 nM staurosporine was added at 20 μl/well. (Staurosporine to a final 150 nM concentration) (For a control, DMEM without serum alone was added).
(§2) 3 hours later, the caspase-3/7 activity was assayed with Apo-One homogenous Caspase-3/7 assay kit (Promega).

[3] = system: murine MPTP Parkinson's model; assay: Murine MPTP Parkinson's model, striate body DA and metabolites; type: in vivo, mice; details: for Resumption ratio of content of DA / Resumption ratio of content of DOPAC / Resumption ratio of content of HVA / DA content per wet weight of striate body / DOPAC content per wet weight of striate body / HVA content per wet weight of striate body: MPTP +; for DA content per wet weight of striate body / DOPAC content per wet weight of striate body / HVA content per wet weight of striate body: 4 days after MPTP
SH-SY5Y cells [4] = assay: MPP+-induced cellular death model, apoptosis by caspase-3/7 assay; type: cell-based, human; details: for Caspase 3/7 activity: MPP+ + (3 mM), 3 h
Procedure: as §1, with “18 mM MPP^+” for “900 nM staurosporine”, “(MPP^+” for “(Staurosporine”, “3 mM concentration.)” for “150 nM concentration)”, “(For” for “(For a”, “added.)” for “added).”
as §2

SH-SY5Y cells [5] = assay: Staurosporine-induced cellular death model, viable cells by MTT assay; type: cell-based, human; details: for MTT assay A490: staurosporine + (150 nM), 24 h
Procedure: as §1, with “Cellular death was induced by adding a protein kinase inhibitor staurosporine to a neuroblastoma SH-SY5Y to examine the effect of PPARδ agonists on the suppression of cellular death. SH-SY5Y” for “SH-SY5Y”, “plated” for “spread”, “added.) 24 hours later, the viable cell count was calculated from the absorbance at 490 nm, using Celltiter 96 Aqueous one solution cell proliferation assay kit (Promega).” for “added).”

SH-SY5Y cells [6] = assay: MPP+-induced cellular death model, viable cells by MTT assay; type: cell-based, human; details: for MTT assay A490: MPP+ + (3 mM), 24 h
Procedure: as §1, with “18 mM MPP^+” for “900 nM staurosporine”, “(MPP^+” for “(Staurosporine”, “3 mM” for “150 nM”
24 hours later, cell growth activity was assayed by measuring the absorbance at 490 nm, using Celltiter 96 aqueous one solution cell proliferation assay kit (Promega).
In the assay system, MPP^+ as an MPTP metabolite was added to a neuroblastoma SH-SY5Y, to inhibit the mitochondrial complex I to cause the generation of active oxygen and the inhibition of ATP synthesis, to induce cellular death. It is said that in the murine MPTP model commonly used as a model of Parkinson's disease, MPTP passing through the blood brain barrier is metabolized into MPP^+, which exerts toxicity specific to murine nigra cell to induce nerve detachment. Therefore, the assay system can be said as an in vitro assay system mimicking the murine MPTP model.

SH-SY5Y cells [7] = assay: Thapsigargin-induced cellular death model, viable cells by MTT assay; type: cell-based, human; details: for MTT assay A490: thapsigargin + (100 nM), 24 h
Procedure: as §1, with “plated” for “spread”, “600” for “900”, “thapsigargin” for “staurosporine”, “(Thapsigargin” for “(Staurosporine”, “100” for “150”, “added.) 24 hours later, the viable cell count was calculated from the absorbance at 490 nm, using Celltiter 96 Aqueous one solution cell proliferaion assay kit (Promega).” for “added).”

SH-SY5Y cells [8] = assay: MPP+-induced cellular death model, dead cells by LDH assay; type: cell-based, human; details: for LDH release A490: MPP+ + (3 mM), 24 h
Procedure: as §1, with “18 mM MPP^+” for “900 nM staurosporine”, “(MPP^+” for “(Staurosporine”, “3 mM” for “150 nM”, “added.)” for “added).”
24 hours later, the dead cell count was calculated on the basis of the LDH activity assayed with a cytotoxicity detection kit (Roche). […] The results reveal that the PPARδ agonists are effective on the suppression of MPP^+-induced cellular death.

## CCCc1c(OCCCOc2ccc(OCC(=O)O)cc2)ccc(C(C)=O)c1O [L-165041, 4-[3-[2-propyl-3-hydroxy-4-acetyl]phenoxy]propyloxyphenoxy acetic acid]
[1]; 24 μg/head/day i.c.v.
  Lesions with cerebral infarction (area in % of damaged site in the 6 sections), Cortex: 12.70 ± 0.63%
  Lesions with cerebral infarction (area in % of damaged site in the 6 sections), Subcortex: 9.98 ± 0.30%
  Lesions with cerebral infarction (area in % of damaged site in the 6 sections), Total: 22.68 ± 0.83%
[1]; 240 μg/head/day i.c.v.
  Lesions with cerebral infarction (area in % of damaged site in the 6 sections), Cortex: 10.22 ± 1.29 %
  Lesions with cerebral infarction (area in % of damaged site in the 6 sections), Subcortex: 9.19 ± 0.85%
  Lesions with cerebral infarction (area in % of damaged site in the 6 sections), Total: 19.40 ± 1.98%
[1]; i.c.v. 24 •g/head/day
  Reduction ratio of cerebral cortex damage: 9%
[1]; i.c.v. 240 •g/head/day
  Reduction ratio of cerebral cortex damage: 27%
[1]; rat cerebral infarction model
  action to reduce cerebral infarction (in words): potent actions to reduce cerebral infarction
SH-SY5Y cells [2]; SH-SY5Y, staurosporine
  suppression of caspase-3/7 activity (in words): suppress the activity of caspase-3/7
SH-SY5Y cells [2]; compound 0.1 μM
  Caspase 3/7 activity: 535404 ± 23301 RFLU
SH-SY5Y cells [2]; compound 1 μM
  Caspase 3/7 activity: 520732 ± 17273 RFLU
SH-SY5Y cells [2]; compound 10 μM
  Caspase 3/7 activity: 483017 ± 27259 RFLU
[3]; 12 μg/head/day
  Resumption ratio of content of DA: 0.42 ± 10.20%
  Resumption ratio of content of DOPAC: −1.45 ± 10.89%
  Resumption ratio of content of HVA: −4.65 ± 12.88%
  DA content per wet weight of striate body: 5.06 ± 1.08 ng/mg tissue
  DOPAC content per wet weight of striate body: 0.28 ± 0.05 ng/mg tissues
  HVA content per wet weight of striate body: 0.66 ± 0.08 ng/mg tissue
[3]; 120 μg/head/day
  Resumption ratio of content of DA: 26.42 ± 8.83 %
  Resumption ratio of content of DOPAC: 32.22 ± 15.41%
  Resumption ratio of content of HVA: 36.58 ± 16.68%
  DA content per wet weight of striate body: 7.81 ± 0.93 ng/mg tissue
  DOPAC content per wet weight of striate body: 0.44 ± 0.07 ng/mg tissues
  HVA content per wet weight of striate body: 0.91 ± 0.10 ng/mg tissue
[3]; dose of 12 μg/head/day
  action of suppressing the decrease of the contents of DA, DOPAC and HVA (in words): not so greatly observed
[3]; dose of 120 μg/head/day
  action of suppressing the decrease of the contents of DA, DOPAC and HVA (in words): greatly observed
SH-SY5Y cells [4]; SH-SY5Y, MPP+
  suppression of caspase-3/7 activity (in words): suppress the activity of caspase-3/7 in a concentration-dependent manner
SH-SY5Y cells [4]; compound 0.1 μM
  Caspase 3/7 activity: 1430206 ± 30804 RFLU
SH-SY5Y cells [4]; compound 1 μM
  Caspase 3/7 activity: 1168920 ± 30554 RFLU
SH-SY5Y cells [4]; compound 10 μM
  Caspase 3/7 activity: 646736 ± 26366 RFLU
SH-SY5Y cells [4]; compound 100 μM
  Caspase 3/7 activity: 572152 ± 33695 RFLU
SH-SY5Y cells [5]; SH-SY5Y, staurosporine
  suppression of staurosporine-induced cellular death (in words): suppression of staurosporine-induced cellular death in a concentration-dependent manner
SH-SY5Y cells [5]; compound 0.1 μM
  MTT assay A490: 0.5523 ± 0.0209
SH-SY5Y cells [5]; compound 1 μM
  MTT assay A490: 0.5532 ± 0.0056
SH-SY5Y cells [5]; compound 10 μM
  MTT assay A490: 0.5167 ± 0.0098
SH-SY5Y cells [6]; SH-SY5Y, MPP+
  suppression of MPP+-induced cellular death (in words): suppress cellular death induced by MPP^+ in a concentration-dependent manner
SH-SY5Y cells [6]; compound 0.1 μM
  MTT assay A490: 0.3744 ± 0.0067
SH-SY5Y cells [6]; compound 1 μM
  MTT assay A490: 0.3935 ± 0.0083
SH-SY5Y cells [6]; compound 10 μM
  MTT assay A490: 0.4799 ± 0.0078
SH-SY5Y cells [6]; compound 100 μM
  MTT assay A490: 0.3181 ± 0.0122
SH-SY5Y cells [7]; SH-SY5Y, thapsigargin
  suppression of thapsigargin-induced cellular death (in words): suppressed cellular death induced by thapsigargin (TG) in a concentration-dependent manner
SH-SY5Y cells [7]; compound 0.1 μM
  MTT assay A490: 0.2176 ± 0.0036
SH-SY5Y cells [7]; compound 1 μM
  MTT assay A490: 0.2158 ± 0.0034
SH-SY5Y cells [7]; compound 10 μM
  MTT assay A490: 0.2436 ± 0.0015
SH-SY5Y cells [7]; compound 100 μM
  MTT assay A490: 0.4405 ± 0.0065
SH-SY5Y cells [8]; compound 0.1 μM
  LDH release A490: 0.3980 ± 0.0141
SH-SY5Y cells [8]; compound 1 μM
  LDH release A490: 0.3874 ± 0.0120
SH-SY5Y cells [8]; compound 10 μM
  LDH release A490: 0.3133 ± 0.0024
SH-SY5Y cells [8]; compound 100 μM
  LDH release A490: 0.6709 ± 0.0093
SH-SY5Y cells [8]; concentration of 100 μM, MPP+ model
  cytotoxicity (in words): exerted cytotoxicity
